The assay concerns the target T1, human PAR-2 (hPAR-2) receptor expressed in HEK-293 T cells in an endogenous manner (Homo sapiens, UniProt P55085).
T1 construct: human PAR-2 (hPAR-2) receptor expressed in HEK-293 T cells in an endogenous manner; endogenous in cells; host or cells: HEK-293 T cells
T1 sequence (P55085 26-397): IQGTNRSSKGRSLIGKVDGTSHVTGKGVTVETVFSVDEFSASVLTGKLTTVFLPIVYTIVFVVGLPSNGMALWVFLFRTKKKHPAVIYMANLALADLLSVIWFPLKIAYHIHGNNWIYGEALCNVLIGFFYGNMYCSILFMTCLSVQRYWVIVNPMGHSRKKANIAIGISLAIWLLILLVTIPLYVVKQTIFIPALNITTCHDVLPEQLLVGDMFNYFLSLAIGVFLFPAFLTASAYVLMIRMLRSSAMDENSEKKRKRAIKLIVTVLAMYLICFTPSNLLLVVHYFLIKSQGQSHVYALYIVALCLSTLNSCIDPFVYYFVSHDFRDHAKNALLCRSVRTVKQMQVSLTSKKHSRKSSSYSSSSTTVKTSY
Put plainly: In vitro human PAR-2 functional antagonist activity using calcium assays (Fluo4AM, FLIPR Tetra). Format: cell-based. The settings on record: HEK-293 T cells stimulated by an EC80 of the 2-Furoyl-LIGRLO-NH2 peptide after 10 min incubation with compound; 20 concentrations, duplicate, two independent experiments. The method, then: In vitro human PAR-2 functional antagonist activity using calcium assays
Examples of the present invention were tested successively for their agonist and antagonist activities on human PAR-2 (hPAR-2) receptor expressed in HEK-293 T cells in an endogenous manner. Compounds exert agonist activity if, by themselves in absence of the 2-Furoyl-LIGRLO-NH2 peptide (selective hPAR-2 agonist), they activate PAR-2; they exert antagonist activity if they decrease the action of the 2-Furoyl-LIGRLO-NH2 peptide on the receptor. The assay used to determine compound activity is based on calcium measurement.
Cell Culture: HEK-293 T cells were maintained in Dulbecco's Modified Eagle's Medium supplemented with 10% Foetal Calf Serum, 1% Penicillin/Streptomycin at 37° C./5% CO2. Flasks for tests (F75) are seeded with 6e+06 cells 24 h before the experiment at 37° C./5% CO2.
Calcium assay: Receptor activity was detected by changes in intracellular calcium measured using the fluorescent Ca^2+ sensitive dye, Fluo4AM (Molecular Probes).
The day of the assay, medium was replaced by assay buffer (HBSS 1× (Gibco 14175-053), Hepes 20 mM, MgSO4-7H2O 1 mM, Na2CO3 3.3 mM, CaCl2-2H2O 1.3 mM, 0.5% BSA, Probenecid 2.5 mM, 0.1 mg/mL Pluronic Acid) and complemented with 1 μM Fluo4AM and cells were incubated during 1:30 h at 37° C.
Cells were then detached, resuspended in assay buffer and seeded in 384 wells, transparent-flat bottom black walled plates (2e+04 cells per well). Plates were incubated at +22° C. for 20 min. Compounds stock solutions were prepared in 100% DMSO and dilutions in test buffer were carried out in polypropylene plates with a digital dispenser (D300e, Tecan). Compounds were added to the cells and intracellular Ca^2+ measurements were collected at the same time on FLIPR Tetra® (Molecular Devices) with specific filters (Exc: 470-495 nm/Em: 515-575 nm).
Agonist and antagonist activities of compounds were consecutively evaluated on the same cell plate. Agonist activity was first measured after 10 min incubation with the compound alone. Then, cells were stimulated by an EC80 of the 2-Furoyl-LIGRLO-NH2 peptide and fluorescence was recorded for an additional 5 min. EC80 of the 2-Furoyl-LIGRLO-NH2 peptide was the concentration giving 80% of the maximal 2-Furoyl-LIGRLO-NH2 response. Agonist activities are evaluated in comparison to basal signals evoked by assay buffer or maximal 2-Furoyl-LIGRLO-NH2 response. […] Antagonist activities are evaluated in comparison to basal signals evoked by assay buffer or EC80 of 2-Furoyl-LIGRLO-NH2 alone.

For 21 compounds, IC50 results are on record in patent publication US20240066027A1 (DOMAIN THERAPEUTICS, priority 2020, published 2024).

Usually pIC50 stands for the negative decadic logarithm of the IC50, by convention in mol/L.

pIC50: −log10 of the molar value.

Turning to `Cc1cc(N2CCN(C(=O)c3ccc4c(-c5ccc(Cl)c(F)c5)cn(CC(C)(C)O)c4n3)C(C)(C)C2)nc(C)c1C(=O)O` [Example 180, 6-(4-(3-(4-chloro-3-fluorophenyl)-1-(2-hydroxy-2-methylpropyl)-1H-pyrrolo[2,3-b]pyridine-6-carbonyl)-3,3-dimethylpiperazin-1-yl)-2,4-dimethylnicotinic acid], the pIC50 was 5.00 to 7.70.

Turning to `CC(C)Cn1cc(-c2ccc(OC(F)(F)F)cc2)c2ccc(C(=O)N3CCNC(=O)C3(C)C)nc21` [Example 116, 4-(1-isobutyl-3-(4-(trifluoromethoxy)phenyl)-1H-pyrrolo[2,3-b]pyridine-6-carbonyl)-3,3-dimethylpiperazin-2-one], the pIC50 was 5.00 to 7.70.

As to `Cc1cc(N2CCN(C(=O)c3ccc4c(-c5ccc(C(F)(F)F)c(F)c5)cn(C(C)(C)C)c4n3)C(C)(C)C2)nc(C)c1C(=O)O` [Example 220, 6-(4-(1-(tert-butyl)-3-(3-fluoro-4-(trifluoromethyl)phenyl)-1H-pyrrolo[2,3-b]pyridine-6-carbonyl)-3,3-dimethylpiperazin-1-yl)-2,4-dimethylnicotinic acid], the pIC50 is greater than 7.70.

Consider `CN1CCN(C(=O)c2ccc3c(-c4ccc(Cl)c(F)c4)cn(C(C)(C)C)c3n2)CC1=O` [Example 20, 4-(1-(tertbutyl)-3-(4-chloro-3-fluorophenyl)-1H-pyrrolo[2,3-b]pyridine-6-carbonyl)-1-methylpiperazin-2-one], for which the pIC50 was 5.00 to 7.70.

As to `Cc1c(-c2ccc(Cl)c(F)c2)c2ccc(C(=O)N3CCNC(=O)C3(C)C)nc2n1CC(C)C` [Example 38, 4-(3-(4-chloro-3-fluorophenyl)-1-isobutyl-2-methyl-1H-pyrrolo[2,3-b]pyridine-6-carbonyl)-3,3-dimethylpiperazin-2-one], the pIC50 is greater than 7.70.

For the compound `Cc1cc(N2CCN(C(=O)c3ccc4c(-c5ccc(Cl)c(F)c5)cn(C(C)C)c4n3)C(C)(C)C2)nc(C)c1C(=O)O` [Example 97, 6-(4-(3-(4-chloro-3-fluorophenyl)-1-isopropyl-1H-pyrrolo[2,3-b]pyridine-6-carbonyl)-3,3-dimethylpiperazin-1-yl)-2,4-dimethyinicotinic acid], the pIC50 was greater than 7.70.

For the compound `Cc1cc(N2CCCN(C(=O)c3ccc4c(-c5ccc(Cl)c(F)c5)cn(C(C)(C)C)c4n3)CC2)nc(C)c1C(=O)O` [Example 127, 6-(4-(1-(tert-butyl)-3-(4-chloro-3-fluorophenyl)-1H-pyrrolo[2,3-b]pyridine-6-carbonyl)-1,4-diazepan-1-yl)-2,4-dimethylnicotinic acid], the pIC50 was 5.00 to 7.70.

Take `CC(C)Cn1nc(-c2ccc(Cl)c(F)c2)c2ccc(C(=O)N3CCNC(=O)C3(C)C)cc21` [Example 83, 4-(3-(4-chloro-3-fluorophenyl)-1-isobutyl-1H-indazole-6-carbonyl)-3,3-dimethylpiperazin-2-one]: the pIC50 is 5.00 to 7.70.

For `CCOCC(C)(C)n1cc(-c2ccc(Cl)c(F)c2)c2ccc(C(=O)N3CCN(c4cc(C)c(C(=O)O)c(C)n4)CC3(C)C)nc21` [Example 126, 6-(4-(3-(4-chloro-3-fluorophenyl)-1-(1-ethoxy-2-methylpropan-2-yl)-1H-pyrrolo[2,3-b]pyridine-6-carbonyl)-3,3-dimethylpiperazin-1-yl)-2,4-dimethylnicotinic acid], the pIC50 is greater than 7.70.

On to `CC(C)Cn1cc(-c2ccccc2OC(F)(F)F)c2ccc(C(=O)N3CCNC(=O)C3(C)C)nc21` [Example 112, 4-(1-isobutyl-3-(2-(trifluoromethoxy)phenyl)-1H-pyrrolo[2,3-b]pyridine-6-carbonyl)-3,3-dimethylpiperazin-2-one], for which the pIC50 was 5.00 to 7.70.

As to `CC(C)Cn1cc(-c2ccccc2F)c2ccc(C(=O)N3CCNC(=O)C3(C)C)nc21` [Example 113, 4-(3-(2-fluorophenyl)-1-isobutyl-1H-pyrrolo[2,3-b]pyridine-6-carbonyl)-3,3-dimethylpiperazin-2-one], the pIC50 was 5.00 to 7.70.

Consider `CCOCCn1cc(-c2ccc(Cl)c(F)c2)c2ccc(C(=O)N3CCNC(=O)C3(C)C)nc21` [Example 42, 4-(3-(4-chloro-3-fluorophenyl)-1-(2-ethoxyethyl)-1H-pyrrolo[2,3-b]pyridine-6-carbonyl)-3,3-dimethylpiperazin-2-one], for which the pIC50 is 5.00 to 7.70.

Take `Cc1cc(N2CCN(C(=O)c3ccc4c(-c5ccc(Cl)c(F)c5)cn(C(C)(C)C)c4n3)C(C)(C)C2)cc(C)c1C(=O)O` [Example 210, 4-(4-(1-(tert-butyl)-3-(4-chloro-3-fluorophenyl)-1H-pyrrolo[2,3-b]pyridine-6-carbonyl)-3,3-dimethylpiperazin-1-yl)-2,6-dimethylbenzoic acid]: the pIC50 is greater than 7.70.

As for `Cc1cc(N2CCN(C(=O)c3ccc4c(-c5ccc(C(F)(F)F)c(F)c5)cn(CC(C)C)c4n3)C(C)(C)C2)nc(C)c1C(=O)O` [Example 144, 6-(4-(3-(3-fluoro-4-(trifluoromethyl)phenyl)-1-isobutyl-1H-pyrrolo[2,3-b]pyridine-6-carbonyl)-3,3-dimethylpiperazin-1-yl)-2,4-dimethylnicotinic acid], the negative-log IC50 (pIC50) was greater than 7.70.

Regarding `CC(C)Cc1nn(-c2ccc(Cl)c(F)c2)c2ccc(C(=O)N3CCNC(=O)C3(C)C)cc12` [Example 228, 4-(1-(4-chloro-3-fluorophenyl)-3-isobutyl-1H-indazole-5-carbonyl)-3,3-dimethylpiperazin-2-one], the pIC50 is 5.00 to 7.70.

With `Cc1cc(N2CCN(C(=O)c3ccc4c(-c5ccc(C(F)(F)F)nc5)cn(CC(C)C)c4n3)C(C)(C)C2)nc(C)c1C(=O)O` [Example 170, 6-(4-(1-isobutyl-3-(6-(trifluoromethyl)pyridin-3-yl)-1H-pyrrolo[2,3-b]pyridine-6-carbonyl)-3,3-dimethylpiperazin-1-yl)-2,4-dimethylnicotinic acid], the pIC50 was 5.00 to 7.70.

Turning to `CC1(C)C(=O)NCCN1C(=O)c1ccc2c(-c3ccc(Cl)c(F)c3)cn(CCN3CCCC3=O)c2n1` [Example 41, 4-(3-(4-chloro-3-fluorophenyl)-1-(2-(2-oxopyrrolidin-1-yl)ethyl)-1H-pyrrolo[2,3-b]pyridine-6-carbonyl)-3,3-dimethylpiperazin-2-one], the negative logarithm of the IC50 (pIC50) is 5.00 to 7.70.

Take `Cc1cc(N2C[C@@H]3C[C@H]2CN3C(=O)c2ccc3c(-c4ccc(Cl)c(F)c4)cn(C(C)(C)C)c3n2)nc(C)c1C(=O)O` [Example 148, 6-((1S,4S)-5-(1-(tert-butyl)-3-(4-chloro-3-fluorophenyl)-1H-pyrrolo[2,3-b]pyridine-6-carbonyl)-2,5-diazabicyclo[2.2.1]heptan-2-yl)-2,4-dimethyinicotinic acid]: the pIC50 is 5.00 to 7.70.

In the case of `COCCn1cc(-c2ccc(Cl)c(F)c2)c2ccc(C(=O)N3CCN(c4cc(C)c(C(=O)O)c(C)n4)CC3(C)C)nc21` [Example 134, 6-(4-(3-(4-chloro-3-fluorophenyl)-1-(2-methoxyethyl)-1H-pyrrolo[2,3-b]pyridine-6-carbonyl)-3,3-dimethylpiperazin-1-yl)-2,4-dimethyinicotinic acid], the pIC50 is greater than 7.70.

Take `Cc1cccc(-c2cn(CC(C)C)c3nc(C(=O)N4CCNC(=O)C4(C)C)ccc23)c1` [Example 118, 4-(1-isobutyl-3-(m-tolyl)-1H-pyrrolo[2,3-b]pyridine-6-carbonyl)-3,3-dimethylpiperazin-2-one]: the pIC50 is 5.00 to 7.70.

`Cc1cc(N2CCN(C(=O)c3ccc4c(n3)c(C(C)(C)C)nn4-c3ccc(Cl)c(F)c3)C(C)(C)C2)nc(C)c1C(=O)O` [Example 59, 6-(4-(3-(tert-butyl)-1-(4-chloro-3-fluorophenyl)-1H-pyrazolo[4,3-b]pyridine-5-carbonyl)-3,3-dimethylpiperazin-1-yl)-2,4-dimethylnicotinic acid]: the pIC50 is greater than 7.70.
